Assay results as given in a compilation of properties of binary mixtures (doi:10.1016/j.jct.2010.07.014).

Experiment: xn = mol fraction of the nth substance listed
Details: 101 kPa

With `CCCC[n+]1ccccc1.F[B-](F)(F)F` + CO the speed of sound (293.15 K, x2 = 0.1574) was 1589.5 m/s, the speed of sound (293.15 K, x2 = 0.2119) was 1580.3 m/s and the speed of sound (293.15 K, x2 = 0.3113) was 1561.6 m/s. It also gave a speed of sound (293.15 K, x2 = 0.3856) of 1545.2 m/s, a speed of sound (293.15 K, x2 = 0.6109) of 1473.1 m/s and a speed of sound (293.15 K, x2 = 0.7044) of 1424.8 m/s. For the same molecule, the speed of sound (293.15 K, x2 = 0.8043) was 1353.2 m/s, the speed of sound (293.15 K, x2 = 0.9023) was 1256.7 m/s and the speed of sound (303.15 K, x2 = 0.1058) was 1582.7 m/s. For the same molecule, the speed of sound (303.15 K, x2 = 0.2119) was 1558.3 m/s, the speed of sound (303.15 K, x2 = 0.3856) was 1522.7 m/s and the speed of sound (303.15 K, x2 = 0.5052) was 1491.6 m/s. For the same molecule, the speed of sound (303.15 K, x2 = 0.6109) was 1450.8 m/s, the speed of sound (303.15 K, x2 = 0.8043) was 1330.3 m/s and the speed of sound (303.15 K, x2 = 0.9023) was 1234.7 m/s. For the same molecule, the speed of sound (313.15 K, x2 = 0.1058) was 1552.6 m/s, the speed of sound (313.15 K, x2 = 0.1574) was 1544.6 m/s and the speed of sound (313.15 K, x2 = 0.2119) was 1535.7 m/s. It also gave a speed of sound (313.15 K, x2 = 0.3113) of 1516.7 m/s, a speed of sound (313.15 K, x2 = 0.3856) of 1500.1 m/s and a speed of sound (313.15 K, x2 = 0.6109) of 1427.1 m/s. It also gave a speed of sound (313.15 K, x2 = 0.7044) of 1378.5 m/s, a speed of sound (313.15 K, x2 = 0.9512) of 1140.1 m/s and a speed of sound (323.15 K, x2 = 0.211) of 1512.7 m/s. It also gave a speed of sound (323.15 K, x2 = 0.3066) of 1494.7 m/s, a speed of sound (323.15 K, x2 = 0.4111) of 1470.5 m/s and a speed of sound (323.15 K, x2 = 0.5203) of 1440.9 m/s. For the same molecule, the speed of sound (323.15 K, x2 = 0.703) was 1363 m/s, the speed of sound (323.15 K, x2 = 0.8081) was 1281.6 m/s and the speed of sound (323.15 K, x2 = 0.9038) was 1172.9 m/s.

For `CCCC[n+]1ccccc1.F[B-](F)(F)F` + CCO, the speed of sound (303.15 K, x2 = 0.072) was 1575.2 m/s, the speed of sound (303.15 K, x2 = 0.147) was 1555.4 m/s and the speed of sound (303.15 K, x2 = 0.3295) was 1514.6 m/s. For the same molecule, the speed of sound (303.15 K, x2 = 0.4136) was 1488.6 m/s, the speed of sound (303.15 K, x2 = 0.5006) was 1454.7 m/s and the speed of sound (303.15 K, x2 = 0.7074) was 1345.6 m/s. For the same molecule, the speed of sound (303.15 K, x2 = 0.8999) was 1199.4 m/s, the speed of sound (303.15 K, x2 = 0.948) was 1163.7 m/s and the speed of sound (313.15 K, x2 = 0.147) was 1532.9 m/s. The speed of sound (313.15 K, x2 = 0.2229) was 1520.8 m/s, the speed of sound (313.15 K, x2 = 0.3295) was 1492.5 m/s and the speed of sound (313.15 K, x2 = 0.4136) was 1466.5 m/s. It also gave a speed of sound (313.15 K, x2 = 0.5006) of 1433.1 m/s, a speed of sound (313.15 K, x2 = 0.7074) of 1329.7 m/s and a speed of sound (313.15 K, x2 = 0.8052) of 1256.1 m/s. The speed of sound (313.15 K, x2 = 0.8999) was 1175.8 m/s, the speed of sound (313.15 K, x2 = 0.948) was 1135.3 m/s and the speed of sound (323.15 K, x2 = 0.072) was 1529.8 m/s. The speed of sound (323.15 K, x2 = 0.147) was 1511.8 m/s, the speed of sound (323.15 K, x2 = 0.3295) was 1470.4 m/s and the speed of sound (323.15 K, x2 = 0.5006) was 1409.4 m/s. For the same molecule, the speed of sound (323.15 K, x2 = 0.5789) was 1374.8 m/s, the speed of sound (323.15 K, x2 = 0.7074) was 1306.2 m/s and the speed of sound (323.15 K, x2 = 0.8052) was 1233.5 m/s. The speed of sound (323.15 K, x2 = 0.948) was 1106.3 m/s.
